Key:
noncancerous CHO cells = experiment: Cytotoxicity against noncancerous CHO cells; type: cell-based; details: for S.I. (selectivity index): average IC50 toward normal cells divided by the average IC50 for the malignant cells; for IC50: noncancerous cells
Excerpt: In order to preliminarily assess the possible toxic effect on noncancerous cells, we also evaluated the cytotoxic potential of the newly developed Cu(II) complexes against noncancerous CHO cells (Table 3). For all tested complexes, calculated IC50 values were higher than those obtained (on average) against tumour cells, thus indicating for this class of metal complexes a slightly preferential cytotoxicity against cancer cells, as attested by the calculated selectivity index values (SI = the quotient of the average IC50 toward normal cells divided by the average IC50 for the malignant cells).
(§1) The growth inhibitory effect toward the tumour cell lines was evaluated by the MTT test as previously described.

[1] = test system: human pancreatic PSN-1 cancer-cell spheroids; experiment: 3D spheroid cytotoxicity, APH assay, 72 h; type: cell-based; details: for IC50: 3D spheroids, 72 h, APH test; for times more effective than cisplatin in 3D spheroids: PSN-1 3D spheroids, relative to cisplatin
Protocol: The cancer spheroids were treated with tested complexes for 72 h, and the cell viability was estimated by means of a modified acid phosphatase (APH) assay.
Spheroid cultures were performed by seeding 2.5 × 10^3 PSN-1 cancer cells/well in spheroid-suitable tissue culture untreated 96-well plates (Greiner Bio-one, Kremsmünster, Austria) in RPMI-1640 cell culture medium without phenol red (Sigma Chemical Co., St. Louis, MO, USA) containing 10% fetal calf serum and supplemented with 20% methyl cellulose stock solution.
An established APH-modified assay was used to detect the cytotoxicity profile in 3D spheroids, as previously described. IC50 values were calculated using a 4-PL model.

MDA-MB-231 cells = details: 24 h, IC50 concentrations
Protocol: Transmission electron microscopy (TEM) studies were also performed to assess the eventual modification of cellular/subcellular morphological features induced by the tested complexes. Figure 5 reports the TEM images of the breast carcinoma cells MDA-MB-231 treated for 24 h with IC50 concentrations of cisplatin or compounds 2 and 4.
About 10^6 MDA-MB-231 cells were seeded in 24-well plates and, following overnight incubation, were treated with the tested compounds for 24 h. Then, cells were processed as previously described. Pictures were captured with a Hitachi H-600 electron microscope (Hitachi, Tokyo, Japan) operating at 75 kV. All photos were analyzed by using Corel Draw 11.
Figure 5 TEM analysis of MDA-MB-231 human breast cancer cells: (a,b) control cells; (c–e) cells treated for 24 h with IC50 concentrations of 2; (f–h) cells treated for 24 h with IC50 concentrations of 4.

[2] = test system: 2008 (ovarian) cancer cells; experiment: MTT cytotoxicity test, 72 h, 2008; type: cell-based, human
Protocol: (§2) The in vitro anticancer potential of the newly developed complexes and of the ligands has been tested on six different cancer cell lines including PSN-1 (pancreatic), HCT-15 (colorectal with low sensitivity for cisplatin), 2008 (ovarian), A431 (cervical), MDA-MB-231 (breast), and U1285 (lung) cancer cells. For comparison purposes, cisplatin efficacy was assessed under the same experimental conditions.
(§3) Table 2 reported the IC50 values of the complexes against two types of ovarian cancer cells, one sensitive (2008) and one resistant to cisplatin (C13*). […] The resistance factor (R.F., the ratio among IC50 values obtained in resistant C13*cells and those calculated in the sensitive 2008 ones) calculated for all tested complexes resulted to be ≤2 (R.F. for cisplatin 11.1), strongly confirming the ability of the complexes to bypass cisplatin resistance.
(§4) Tested compounds were dissolved in DMSO and added to the cell-growth medium to a final solvent concentration of 0.5%, which is well reported to not have cytotoxic effects on cell viability. Cisplatin (Sigma Chemical Co., St. Louis, MO, USA) was dissolved in a physiologic solution (0.9% sodium chloride).
(§5) Human colon (HCT-15), pancreatic (PSN-1), and breast (MDA-MB-231) carcinoma-cell lines were obtained from the American Type Culture Collection (ATCC, Rockville, MD). Human cervical carcinoma (A431) cells were kindly provided by Prof. F. Zunino (Division of Experimental Oncology B, Istituto Nazionale dei Tumori, Milan). Human ovarian carcinoma (2008) cells and their cisplatin-resistant counterpart (C13*) were kindly provided by Prof. G. Marverti (Dipartimento di Scienze Biomediche, Università di Modena University, Italy). Cell lines were cultured in RPMI-1640 or DMEM medium (Euroclone) added with 10% fetal calf serum (Euroclone, Milan, Italy), antibiotics (50 units per mL penicillin, and 50 μg mL^−1 streptomycin), and 2 mM L-glutamine.
as §1

[3] = test system: HCT-15 (colorectal with low sensitivity for cisplatin) cancer cells; experiment: MTT cytotoxicity test, 72 h, HCT-15; type: cell-based, human; details: mean ± S.D.
Protocol: as §2, §4, §5, §1

[4] = test system: A431 (cervical) cancer cells; experiment: MTT cytotoxicity test, 72 h, A431; type: cell-based, human; details: mean ± S.D.
Protocol: as §2, §4, §5, §1

DNA = experiment: Ethidium bromide displacement assay; type: binding; details: EtBr displacement
Protocol: A number of research studies were performed on the elucidation of the mechanism of action of copper complexes in the past three decades. Despite several different molecular targets having been proposed for copper(II) complexes, DNA still represents one of the most substantiated when considering diamine ligands. On this basis, we thought it of interest to evaluate the ability of tested complexes to interact with DNA, both at molecular and cellular levels. An ethidium bromide (EB) displacement assay was used to understand if the complexes interact with the DNA at a molecular level. […] These values are very much in line with what was previously seen by us and also very close to the reported literature values of 2.60 × 10^7 M(bp^−1) and 3.04 × 10^7 M(bp^−1) for the bis complexes of [Cu(phen)2]^2+ and [Cu(DPQ)2]^2+ reported by Molphy et al.. […] It is largely possible that the presence of the 1,10-phenanthroline scaffold on compounds 3 and 4 is contributing to the increased displacement of the EtBr (probably by intercalation) and leading to a more noticeable decrease in the fluorescence.
EtBr displacement assays were performed in 10 mM phosphate buffer solution (pH 7.4) as described by Boger et al. The binding values were calculated using the % relative decrease of fluorescence at 50% and the equation below. (1) EEBEtBr/compound50%FI

[5] = test system: U1285 (lung) cancer cells; experiment: MTT cytotoxicity test, 72 h, U1285; type: cell-based, human; details: mean ± S.D., read-out: IC50 U-1285
Protocol: as §2, §4, §1

[6] = test system: C13* ovarian cancer cells (cisplatin-resistant); experiment: MTT cytotoxicity test, 72 h, cisplatin-resistant C13*; type: cell-based, human; details: for R.F. (resistance factor): RF = IC50 resistant (C13*)/IC50 parental cells (2008); for IC50: cisplatin-resistant cells, 72 h, MTT test
Protocol: as §3, §4, §5, §1

[7] = Table 2, cisplatin-sensitive parental cells

O=C(CCCC[C@@H]1SC[C@@H]2NC(=O)N[C@@H]21)NN=C1C(=O)c2ccc[n+]3c2-c2c1ccc[n+]2[Cu-2]31[n+]2cccc3ccc4ccc[n+]1c4c32.O=[N+]([O-])[O-].O=[N+]([O-])[O-] [Complex 4, [Cu(phen)(phendione-biotin)](NO3)2]
S.I. (selectivity index) (noncancerous CHO cells): 2.3
IC50 (noncancerous CHO cells): 1.8 ± 0.7 µM
IC50 [1]: 6.9 ± 1.3 µM
times more effective than cisplatin in 3D spheroids [1]: eight
cell morphology by TEM (MDA-MB-231 cells): substantial enhancement of the mitochondrial dimensions (swelling) and a partial disruption of the cristae structures
IC50 ([2]; Table 1, mean ± S.D.): 600 ± 200 nM
IC50 [2, 7]: 600 ± 200 nM
IC50 [3]: 400 ± 20 nM
IC50 [4]: 300 ± 30 nM
fluorescence quenching (in words) (DNA): highest quenching values
relative fluorescence decrease (DNA): greater than 50%
binding constant (DNA; 10 mM phosphate buffer pH 7.4, from 50% fluorescence decrease): 1.28 × 10^7 M(bp^−1)
IC50 [5]: 2000 ± 600 nM
R.F. (resistance factor) [6]: 1.9
IC50 [6]: 1100 ± 300 nM

O=C(CCCC[C@@H]1SC[C@@H]2NC(=O)N[C@@H]21)NN=C1C(=O)c2ccc[n+]3c2-c2c1ccc[n+]2[Cu-2]3([Cl])[Cl] [Complex 2, [Cu(phendione-biotin)Cl2]]
S.I. (selectivity index) (noncancerous CHO cells): 3.7
IC50 (noncancerous CHO cells): 5.2 ± 0.3 µM
IC50 [1]: 1.3 ± 0.5 µM
times more effective than cisplatin in 3D spheroids [1]: about forty
cell morphology by TEM (MDA-MB-231 cells): substantial enhancement of the mitochondrial dimensions (swelling) and a partial disruption of the cristae structures
IC50 ([2]; Table 1, mean ± S.D.): 1100 ± 300 nM
IC50 [2, 7]: 1100 ± 300 nM
IC50 [3]: 400 ± 100 nM
IC50 [4]: 1200 ± 500 nM
fluorescence quenching (in words) (DNA): very small quenching
IC50 [5]: 3800 ± 500 nM
R.F. (resistance factor) [6]: 1.0
IC50 [6]: 1100 ± 400 nM
